# How the values were obtained:
# Assay type in all cases: in vivo
# [1] = system: redroot pigweed (Amaranthus retroflexus, AMARE); test: Pre-emerge test, greenhouse herbicide activity screening; settings: pre-emerge, 14 days after application, rating scale 0-100
# How it was run: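 Compounds in acetone were track-sprayed at 15-1000 g ai/ha (187 l/ha) on sandy loam pots: pre-emerge one day after seeding, post-emerge at 2-3 leaf stage with 0.25% v/v non-ionic surfactant. Phytotoxicity was rated 14 days later on a 0 (no damage) to 100 (complete death) scale.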
# [2] = system: barnyardgrass (Echinochloa crus-galli, ECHCG); test: as above; settings: pre-emerge, 14 days after application, rating scale 0-100
# How it was run: (§1)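 Applied at 15–1000 g ai/ha from acetone in 187 l/ha spray volume. Post-emergence applications included 0.25% v/v non-ionic surfactant and reached plants sown 8–21 days before. Pre-emergence applications were incorporated by surface watering. Efficacy or crop damage was rated on a 0–100 scale after 14 days.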
# [3] = system: green foxtail (Setaria viridis, SETVI); test: as above; settings: pre-emerge, 14 days after application, rating scale 0-100
# How it was run: as §1
# [4] = system: ivyleaf morningglory (Ipomoea hederacea, IPOHE); test: as above; settings: pre-emerge, 14 days after application, rating scale 0-100
# How it was run: as §1
# [5] = system: johnsongrass (Sorghum halepense, SORHA); test: as above; settings: pre-emerge, 14 days after application, rating scale 0-100
# How it was run: as §1
# [6] = system: lambsquarters (Chenopodium album, CHEAL); test: as above; settings: pre-emerge, 14 days after application, rating scale 0-100
# How it was run: as §1
# [7] = system: large crabgrass (Digitaria sanguinalis, DIGSA); test: as above; settings: pre-emerge, 14 days after application, rating scale 0-100
# How it was run: as §1
# [8] = system: sicklepod (Cassia obtusifolia, CASOB); test: as above; settings: pre-emerge, 14 days after application, rating scale 0-100
# How it was run: as §1
# [9] = system: velvetleaf (Abutilon theophrasti, ABUTH); test: as above; settings: pre-emerge, 14 days after application, rating scale 0-100
# How it was run: as §1
# [10] = system: field corn (Zea mays L., var. Dekalb 535, CORN); test: Pre-emerge test, crop safety; settings: pre-emerge, 14 days after application, rating scale 0-100
# How it was run: (§2)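 Sandy loam pots; pre-emerge: sown 1 d pre-spray, surface-watered after, then bottom-watered. Post-emerge: sown 8–21 d before, 2–3 leaf stage, + 0.25% v/v NIS, bottom-watered. Acetone, 187 l/ha track spray, 15–1000 g ai/ha. 0–100 injury score, day 14.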
# [11] = system: upland rice (Oryza sp., var. Tebonnet, RICE); test: Pre-emerge test, crop safety; settings: pre-emerge, 14 days after application, rating scale 0-100
# How it was run: as §2
# [12] = system: barnyardgrass (Echinochloa crus-galli, ECHCG); test: Post-emerge test, greenhouse herbicide activity screening; settings: post-emerge, 14 days after application, rating scale 0-100
# How it was run: as §2
# [13] = system: green foxtail (Setaria viridis, SETVI); test: as above; settings: post-emerge, 14 days after application, rating scale 0-100
# How it was run: as §2
# [14] = system: ivyleaf morningglory (Ipomoea hederacea, IPOHE); test: as above; settings: post-emerge, 14 days after application, rating scale 0-100
# How it was run: as §2
# [15] = system: johnsongrass (Sorghum halepense, SORHA); test: as above; settings: post-emerge, 14 days after application, rating scale 0-100
# How it was run: as §2
# [16] = system: lambsquarters (Chenopodium album, CHEAL); test: as above; settings: post-emerge, 14 days after application, rating scale 0-100
# How it was run: as §2
# [17] = system: large crabgrass (Digitaria sanguinalis, DIGSA); test: as above; settings: post-emerge, 14 days after application, rating scale 0-100
# How it was run: as §2
# [18] = system: redroot pigweed (Amaranthus retroflexus, AMARE); test: as above; settings: post-emerge, 14 days after application
# How it was run: as §2
# [19] = system: sicklepod (Cassia obtusifolia, CASOB); test: as above; settings: post-emerge, 14 days after application, rating scale 0-100
# How it was run: as §2
# [20] = system: velvetleaf (Abutilon theophrasti, ABUTH); test: as above; settings: post-emerge, 14 days after application, rating scale 0-100
# How it was run: as §2
# [21] = system: field corn (Zea mays L., var. Dekalb 535, CORN); test: Post-emerge test, crop safety; settings: post-emerge, 14 days after application, rating scale 0-100
# How it was run: as §1
# [22] = system: upland rice (Oryza sp., var. Tebonnet, RICE); test: Post-emerge test, crop safety; settings: post-emerge, 14 days after application, rating scale 0-100
# How it was run: as §1
smiles,measurement,setting,value
Cn1c(C(F)(F)F)cc(=O)n(-c2ccc(Cl)cc2/C=C/c2ccc3ccccc3c2)c1=O [14-59],phytotoxicity rating AMARE,[1]; 63 g ai/ha,0
same,phytotoxicity rating AMARE,[1]; 250 g ai/ha,0
same,phytotoxicity rating ECHCG,[2]; 63 g ai/ha,0
same,phytotoxicity rating ECHCG,[2]; 250 g ai/ha,0
same,phytotoxicity rating SETVI,[3]; 63 g ai/ha,0
same,phytotoxicity rating SETVI,[3]; 250 g ai/ha,0
same,phytotoxicity rating IPOHE,[4]; 63 g ai/ha,0
same,phytotoxicity rating IPOHE,[4]; 250 g ai/ha,0
same,phytotoxicity rating SORHA,[5]; 63 g ai/ha,0
same,phytotoxicity rating SORHA,[5]; 250 g ai/ha,0
same,phytotoxicity rating CHEAL,[6]; 63 g ai/ha,40
same,phytotoxicity rating CHEAL,[6]; 250 g ai/ha,0
same,phytotoxicity rating DIGSA,[7]; 63 g ai/ha,0
same,phytotoxicity rating DIGSA,[7]; 250 g ai/ha,0
same,phytotoxicity rating CASOB,[8]; 63 g ai/ha,0
same,phytotoxicity rating CASOB,[8]; 250 g ai/ha,0
same,phytotoxicity rating ABUTH,[9]; 63 g ai/ha,0
same,phytotoxicity rating ABUTH,[9]; 250 g ai/ha,0
same,phytotoxicity rating CORN,[10]; 63 g ai/ha,0
same,phytotoxicity rating CORN,[10]; 250 g ai/ha,0
same,phytotoxicity rating RICE,[11]; 63 g ai/ha,0
same,phytotoxicity rating RICE,[11]; 250 g ai/ha,0
same,Post-emerge Herbicidal Activity ECHCG (phytotoxicity rating),[12]; 63 g ai/ha,0
same,Post-emerge Herbicidal Activity ECHCG (phytotoxicity rating),[12]; 250 g ai/ha,0
same,Post-emerge Herbicidal Activity SETVI (phytotoxicity rating),[13]; 63 g ai/ha,0
same,Post-emerge Herbicidal Activity SETVI (phytotoxicity rating),[13]; 250 g ai/ha,0
same,Post-emerge Herbicidal Activity IPOHE (phytotoxicity rating),[14]; 63 g ai/ha,30
same,Post-emerge Herbicidal Activity IPOHE (phytotoxicity rating),[14]; 250 g ai/ha,30
same,Post-emerge Herbicidal Activity SORHA (phytotoxicity rating),[15]; 63 g ai/ha,0
same,Post-emerge Herbicidal Activity SORHA (phytotoxicity rating),[15]; 250 g ai/ha,0
same,Post-emerge Herbicidal Activity CHEAL (phytotoxicity rating),[16]; 63 g ai/ha,10
same,Post-emerge Herbicidal Activity CHEAL (phytotoxicity rating),[16]; 250 g ai/ha,10
same,Post-emerge Herbicidal Activity DIGSA (phytotoxicity rating),[17]; 63 g ai/ha,0
same,Post-emerge Herbicidal Activity DIGSA (phytotoxicity rating),[17]; 250 g ai/ha,0
same,Post-emerge Herbicidal Activity AMARE (phytotoxicity rating),"[18]; 63 g ai/ha, rating scale 0-100 (0 no damage, 100 complete death)",20
same,Post-emerge Herbicidal Activity AMARE (phytotoxicity rating),"[18]; 250 g ai/ha, rating scale 0-100",20
same,Post-emerge Herbicidal Activity CASOB (phytotoxicity rating),[19]; 63 g ai/ha,0
same,Post-emerge Herbicidal Activity CASOB (phytotoxicity rating),[19]; 250 g ai/ha,10
same,Post-emerge Herbicidal Activity ABUTH (phytotoxicity rating),[20]; 63 g ai/ha,50
same,Post-emerge Herbicidal Activity ABUTH (phytotoxicity rating),[20]; 250 g ai/ha,30
same,Post-emerge Herbicidal Activity CORN (crop damage rating),[21]; 63 g ai/ha,0
same,Post-emerge Herbicidal Activity CORN (crop damage rating),[21]; 250 g ai/ha,0
same,Post-emerge Herbicidal Activity RICE (crop damage rating),[22]; 63 g ai/ha,0
same,Post-emerge Herbicidal Activity RICE (crop damage rating),[22]; 250 g ai/ha,0

# From patent US6355799B1, “Substituted benzene compounds, process for their preparation, and herbicidal and defoliant compositions containing them” (ISK Americas Incorporated, priority 1997, dated 2002)
